Experimental data: patent publication US20150353495A1 (PORTOLA PHARMACEUTICALS, INC., priority 2010, published 2015)

Assays:
Format in all cases: biochemical
[1] = biological target: T1, JAK3 (Homo sapiens, UniProt P52333); experiment: Z'-LYTE kinase assay JAK3
T1 construct: 5 μl of catalytic domain recombinant Kinase enzyme+Tyr peptide substrate (Invitrogen, CA); purchased Invitrogen
Outline: (§1)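 In duplicate wells, each test molecule (1% final DMSO) is incubated with recombinant kinase catalytic domain, Tyr6 peptide substrate and ATP for one hour at room temperature; a site-specific protease is then added for another hour before fluorescence reading.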

[2] = biological target: T2, TYK2 (Homo sapiens, UniProt P29597); experiment: Z'-LYTE kinase assay TYK2
T2 construct: 5 μl of catalytic domain recombinant Kinase enzyme+Tyr peptide substrate (Invitrogen, CA); purchased Invitrogen
T2 sequence (P29597 897-1176 limits assumed): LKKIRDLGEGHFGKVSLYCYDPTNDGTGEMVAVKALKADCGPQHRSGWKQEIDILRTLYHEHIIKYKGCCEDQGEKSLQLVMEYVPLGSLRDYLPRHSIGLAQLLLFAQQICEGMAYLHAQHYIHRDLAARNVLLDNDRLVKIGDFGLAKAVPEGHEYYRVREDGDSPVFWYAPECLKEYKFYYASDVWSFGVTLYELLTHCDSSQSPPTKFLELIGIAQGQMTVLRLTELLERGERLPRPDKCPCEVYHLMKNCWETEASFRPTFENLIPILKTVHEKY
Experimental: JAK and TYK2 tyrosine phosphorylation activity is measured using the Z′-LYTE™ Technology developed by Invitrogen Corporation (Carlsbad, Calif.). For JAK1, JAK2 and JAK3 the Z′-LYTE™ Kinase Assay Kit-Tyr6 Peptide (part number PV4122) was used. For TYK2 the Z′-LYTE™ Kinase Assay Kit-Tyr6 Peptide (part number PV3192) was used. The Z′-LYTE™ biochemical assay employs a fluorescence resonance energy transfer (FRET) coupled-enzyme format and is based on the differential sensitivity of phosphorylated and non-phosphorylated peptides to proteolitic cleavage. The assay uses a synthetic peptide substrate that is labelled with a donor fluorophore (coumarin) and an acceptor fluorophore (fluorescein) that make up a FRET pair. In the primary reaction (the Kinase Reaction), the kinase transfers the γ-phosphate of ATP to a single tyrosine residue on the substrate, while the presence of a kinase inhibitor in the primary reaction suppresses phosphorylation. In the secondary reaction (the Development Reaction), a site-specific protease (the Development Reagent) is added. The development buffer quenches the Kinase Reaction, while the protease recognizes and cleaves non-phosphorylated Z′-LYTE™ peptide substrate. Cleavage disrupts FRET between the donor and acceptor fluorophores on the non-phosphoryleted substrate, while uncleaved, phosphorylated substrate maintains FRET.
To test the ability of candidate molecules to inhibit JAK tyrosine phosphorylation activity, molecules are reconstituted in 100% DMSO and serially diluted 1:10 in polypropylene v-bottom microtiter plates. The candidate molecules are then diluted 1:25 into kinase buffer and 2.5 μl transferred into duplicate wells of a 384 well low volume black microtiter assay plate (Corning, USA). The final DMSO concentration in the assay is 1%. The kinase reaction contains 2.5 μl of a candidate molecule, 5 μl of catalytic domain recombinant Kinase enzyme+Tyr peptide substrate (Invitrogen, CA) and 2.5 μl ATP (Invitrogen, CA). The kinase reaction is allowed to procede for 1 hour at room temperature. The protease reaction is initiated by the addition of 5 μl Development Reagent (Invitrogen, CA). After 1 hour incubation at room temperature the fluorescence is measured using a FlexStation plate reader (Molecular Devices, Sunnyvale, Calif.). The reader settings used are as follows: Fluorescence mode, endpoint, top read, excitation 400 nm, emission 445 nm and 520 nm, Auto Cutoff 435 nm and 515 nm, PMT sensitivity high, 6 reads per well Inhibition of JAK kinase activity is calculated as the percent phosphorylation of substrate in the presence of inhibitor compared to the percent phosphorylation of substrate in the absence of inhibitor. IC50's were derived using Xlfit 4.3 (IDBS, UK), 4 parameter logistic model 205: Y=(A+4B-A)/(1+((C/x)AD)))).

[3] = biological target: T3, JAK1 (Homo sapiens, UniProt P23458); experiment: Z'-LYTE kinase assay JAK1
T3 construct: 5 μl of catalytic domain recombinant Kinase enzyme+Tyr peptide substrate (Invitrogen, CA); purchased Invitrogen
T3 sequence (P23458 875-1153 limits assumed): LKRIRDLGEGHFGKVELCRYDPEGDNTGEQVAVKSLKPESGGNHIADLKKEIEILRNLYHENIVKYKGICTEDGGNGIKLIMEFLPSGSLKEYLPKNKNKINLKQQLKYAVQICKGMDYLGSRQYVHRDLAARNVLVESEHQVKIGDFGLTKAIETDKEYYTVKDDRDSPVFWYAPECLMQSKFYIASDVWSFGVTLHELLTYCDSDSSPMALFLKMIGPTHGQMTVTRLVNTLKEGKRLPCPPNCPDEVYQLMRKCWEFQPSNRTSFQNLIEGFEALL
Outline: as §1

[4] = biological target: T4, JAK2 (Homo sapiens, UniProt O60674); experiment: Z'-LYTE kinase assay JAK2
T4 construct: 5 μl of catalytic domain recombinant Kinase enzyme+Tyr peptide substrate (Invitrogen, CA); purchased Invitrogen
T4 sequence (O60674 849-1124 limits assumed): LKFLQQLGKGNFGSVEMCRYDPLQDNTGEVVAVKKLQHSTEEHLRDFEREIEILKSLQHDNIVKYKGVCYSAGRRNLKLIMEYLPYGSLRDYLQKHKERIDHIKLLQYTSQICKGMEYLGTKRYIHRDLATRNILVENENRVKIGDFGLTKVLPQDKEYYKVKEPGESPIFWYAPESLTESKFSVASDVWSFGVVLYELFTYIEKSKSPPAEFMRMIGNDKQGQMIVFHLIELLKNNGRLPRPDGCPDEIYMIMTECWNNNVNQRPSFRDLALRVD
Outline: as §1

T1 sequence (P52333 822-1111 limits assumed): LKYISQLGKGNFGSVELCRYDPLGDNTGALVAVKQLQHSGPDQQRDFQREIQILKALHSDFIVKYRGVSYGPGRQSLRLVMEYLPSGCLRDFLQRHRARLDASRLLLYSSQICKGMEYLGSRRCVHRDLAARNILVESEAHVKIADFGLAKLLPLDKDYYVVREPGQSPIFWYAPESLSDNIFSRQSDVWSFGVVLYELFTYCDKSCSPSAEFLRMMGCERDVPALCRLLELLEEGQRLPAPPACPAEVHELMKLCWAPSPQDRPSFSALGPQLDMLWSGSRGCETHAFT

IC50 [1]	IC50 [2]	IC50 [3]	IC50 [4]	Compound
1 to 10 nM	> 1000 nM	> 1000 nM	10 to 100 nM	CCC(=O)N1CCC(c2ccc(Nc3cc(NCc4cc(F)cc(F)c4)c(C(N)=O)cn3)cc2)CC1 [Example 195, 4-(3,5-difluorobenzylamino)-6-(4-(1-propionylpiperidin-4-yl)phenylamino)nicotinamide]
1 to 10 nM	100 to 1000 nM	100 to 1000 nM	10 to 100 nM	CCC(=O)N1CCC(c2ccc(Nc3cc(NCc4cccc(F)c4F)c(C(N)=O)cn3)cc2)CC1 [Example 196, 4-(2,3-difluorobenzylamino)-6-(4-(1-propionylpiperidin-4-yl)phenylamino)nicotinamide]
1 to 10 nM	100 to 1000 nM	100 to 1000 nM	100 to 1000 nM	CCC(=O)N1CCC(c2ccc(Nc3cc(NCc4cccs4)c(C(N)=O)cn3)cc2)CC1 [Example 197, 6-(4-(1-propionylpiperidin-4-yl)phenylamino)-4-(thiophen-2-ylmethylamino)nicotinamide]
1 to 10 nM	100 to 1000 nM	> 1000 nM	100 to 1000 nM	CCC(=O)N1CCC(c2ccc(Nc3cc(NCc4ccccc4)c(C(N)=O)cn3)cc2)CC1 [Example 198, 4-(benzylamino)-6-(4-(1-propionylpiperidin-4-yl)phenylamino)nicotinamide]
10 to 100 nM	> 1000 nM	> 1000 nM	100 to 1000 nM	CCC(=O)N1CCC(c2ccc(Nc3cc(N[C@H](C)c4ccccc4)c(C(N)=O)cn3)cc2)CC1 [Example 199, (R)-4-(1-phenylethylamino)-6-(4-(1-propionylpiperidin-4-yl)phenylamino)nicotinamide]
1 to 10 nM	10 to 100 nM	100 to 1000 nM	100 to 1000 nM	CC(=O)Nc1cccc(Nc2cc(NCc3cccs3)c(C(N)=O)cn2)c1 [Example 222, 6-(3-acetamidophenylamino)-4-(thiophen-2-ylmethylamino)nicotinamide]
100 to 1000 nM	100 to 1000 nM	> 1000 nM	> 1000 nM	CC(=O)N1CCN(c2ccc(Nc3cc(NC(C)C)c(C(N)=O)cn3)cc2)CC1 [Example 234, 6-(4-(4-acetylpiperazin-1-yl)phenylamino)-4-(isopropylamino)nicotinamide]
10 to 100 nM	10 to 100 nM	100 to 1000 nM	100 to 1000 nM	CC(=O)N1CCN(c2ccc(Nc3cc(NCC(C)C)c(C(N)=O)cn3)cc2)CC1 [Example 235, 6-(4-(4-acetylpiperazin-1-yl)phenylamino)-4-(isobutylamino)nicotinamide]
100 to 1000 nM	100 to 1000 nM	> 1000 nM	100 to 1000 nM	CC(=O)N1CCN(c2ccc(Nc3cc(NCC4CC4)c(C(N)=O)cn3)cc2)CC1 [Example 238, 6-(4-(4-acetylpiperazin-1-yl)phenylamino)-4-(cyclopropylmethylamino)nicotinamide]
10 to 100 nM	10 to 100 nM	100 to 1000 nM	100 to 1000 nM	CC(=O)N1CCN(c2ccc(Nc3cc(NC4CCCC4)c(C(N)=O)cn3)cc2)CC1 [Example 239, 6-(4-(4-acetylpiperazin-1-yl)phenylamino)-4-(cyclopentylamino)nicotinamide]
10 to 100 nM	10 to 100 nM	100 to 1000 nM	100 to 1000 nM	CC(=O)N1CCN(c2ccc(Nc3cc(NCC4CCC4)c(C(N)=O)cn3)cc2)CC1 [Example 243, 6-(4-(4-acetylpiperazin-1-yl)phenylamino)-4-(cyclobutylmethylamino)nicotinamide]
10 to 100 nM	> 1000 nM	> 1000 nM	100 to 1000 nM	CC(=O)N1CCN(c2ccc(Nc3cc(NCc4ccc(F)cc4)c(C(N)=O)cn3)cc2)CC1 [Example 252, 6-(4-(4-acetylpiperazin-1-yl)phenylamino)-4-(4-fluorobenzylamino)nicotinamide]
100 to 1000 nM	100 to 1000 nM	> 1000 nM	100 to 1000 nM	CC(=O)N1CCN(c2ccc(Nc3cc(NC4Cc5ccccc5C4)c(C(N)=O)cn3)cc2)CC1 [Example 253, 6-(4-(4-acetylpiperazin-1-yl)phenylamino)-4-(2,3-dihydro-1H-inden-2-ylamino)nicotinamide]
10 to 100 nM	> 1000 nM	> 1000 nM	100 to 1000 nM	CC(=O)N1CCN(c2ccc(Nc3cc(NCc4ccc5c(c4)OCO5)c(C(N)=O)cn3)cc2)CC1 [Example 254, 6-(4-(4-acetylpiperazin-1-yl)phenylamino)-4-(benzo[d][1,3]dioxol-5-ylmethylamino)nicotinamide]
10 to 100 nM	100 to 1000 nM	> 1000 nM	100 to 1000 nM	CC(=O)N1CCC[C@H](CNc2cc(Nc3ccc(C(=O)N4CCCC4)cc3)ncc2C(N)=O)C1 [Example 265, (R)-4-((1-acetylpiperidin-3-yl)methylamino)-6-(4-(pyrrolidine-1-carbonyl)phenylamino)nicotinamide]
1 to 10 nM	100 to 1000 nM	100 to 1000 nM	10 to 100 nM	Cc1cc(Nc2cc(NCc3cncc(F)c3)c(C(N)=O)cn2)ccc1C(=O)N(C)C [Example 297]
10 to 100 nM	> 1000 nM	> 1000 nM	100 to 1000 nM	NC(=O)c1cnc(Nc2cccc(OCCN3CCCC3)c2)cc1NC1(c2ccccc2)CC1 [Example 363, 4-(1-phenylcyclopropylamino)-6-(3-(2-(pyrrolidin-1-yl)ethoxy)phenylamino)nicotinamide]
10 to 100 nM	> 1000 nM	> 1000 nM	100 to 1000 nM	CS(=O)(=O)N1CCN(c2ccc(Nc3cc(NC4(c5ccccc5)CC4)c(C(N)=O)cn3)cc2)CC1 [Example 364, 6-(4-(4-(methylsufonly)piperazin-1-yl)phenylamino)-4-(1-phenylcyclopropylamino)nicotinamide]
10 to 100 nM	> 1000 nM	> 1000 nM	> 1000 nM	CN(C)C(=O)COc1cccc(Nc2cc(NC3(c4ccccc4)CC3)c(C(N)=O)cn2)c1 [Example 365, 6-(3-(2-(dimethylamino)-2-oxoethoxy)phenylamino)-4-(1-phenylcyclopropylamino)nicotinamide]
10 to 100 nM	> 1000 nM	> 1000 nM	100 to 1000 nM	CN(C)C(=O)COc1ccc(Nc2cc(NC3(c4ccccc4)CC3)c(C(N)=O)cn2)cc1 [Example 366, 6-(4-(2-(dimethylamino)-2-oxoethoxy)phenylamino)-4-(1-phenylcyclopropylamino)nicotinamide]
10 to 100 nM	> 1000 nM	> 1000 nM	100 to 1000 nM	NC(=O)c1cnc(Nc2cccc(N3CCNCC3)c2)cc1NC1(c2ccccc2)CC1 [Example 367, 4-(1-phenylcyclopropylamino)-6-(3-(piperazin-1-yl)phenylamino)nicotinamide]
100 to 1000 nM	> 1000 nM	> 1000 nM	> 1000 nM	NC(=O)c1cnc(Nc2ccc(N3CCOCC3)cc2)c(Cl)c1NCc1cccc(F)c1 [Example 377, 5-chloro-4-(3-fluorobenzylamino)-6-(4-morpholinophenylamino)nicotinamide]
1 to 10 nM	> 1000 nM	100 to 1000 nM	100 to 1000 nM	N#CCOc1ccc(Nc2cc(NCc3ccccc3)c(C(N)=O)cn2)cc1 [Example 384]
1 to 10 nM	100 to 1000 nM	100 to 1000 nM	100 to 1000 nM	N#CCCc1ccc(Nc2cc(NCc3ccccc3)c(C(N)=O)cn2)cc1 [Example 386]
